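Protocol summary: plate cells (96-well), add compound at 5 concentrations, incubate 48 h, interpolate endpoints linearly. GI50 marks 50% less growth. TGI: concentration producing complete growth inhibition.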
Legend:
Assay in all cases: NCI tumour cell line growth inhibition, 48 h
ACHN renal = system: ACHN renal
HS 578T breast = system: HS 578T breast
SK-MEL-28 melanoma = system: SK-MEL-28 melanoma
HOP-92 NSCLC = system: HOP-92 NSCLC
HCT-116 colon = system: HCT-116 colon
MCF7 breast = system: MCF7 breast
HCT-15 colon = system: HCT-15 colon
UACC-257 melanoma = system: UACC-257 melanoma
DU-145 prostate = system: DU-145 prostate
SF-539 CNS = system: SF-539 CNS
OVCAR-3 ovarian = system: OVCAR-3 ovarian
SK-OV-3 ovarian = system: SK-OV-3 ovarian
HL-60(TB) leukemia = system: HL-60(TB) leukemia
SR leukemia = system: SR leukemia
M14 melanoma = system: M14 melanoma
IGROV1 ovarian = system: IGROV1 ovarian
NCI-H522 lung = system: NCI-H522 lung
RXF 393 renal = system: RXF 393 renal
K-562 leukemia = system: K-562 leukemia
LOX IMVI melanoma = system: LOX IMVI melanoma
PC-3 prostate = system: PC-3 prostate
HT29 colon = system: HT29 colon
SNB-75 CNS = system: SNB-75 CNS
OVCAR-5 ovarian = system: OVCAR-5 ovarian
NCI-H460 lung = system: NCI-H460 lung
U251 CNS = system: U251 CNS
CCRF-CEM leukemia = system: CCRF-CEM leukemia
BT-549 breast = system: BT-549 breast
MDA-MB-468 breast = system: MDA-MB-468 breast

`C#C[C@]1(O)CC[C@H]2[C@@H]3CC=C4c5sc(Nc6ccc(N(C)C)cc6)nc5CC[C@]4(C)[C@H]3CC[C@@]21C` gave a GI50 (ACHN renal) of 2240 nM, a TGI (ACHN renal) of 10800 nM and a GI50 (HS 578T breast) of 417 nM. It also gave a TGI (HS 578T breast) of 3980 nM, a GI50 (SK-MEL-28 melanoma) of 651 nM and a TGI (SK-MEL-28 melanoma) of 1880 nM. For the same compound, the GI50 (HOP-92 NSCLC) was 2650 nM, the TGI (HOP-92 NSCLC) was 17800 nM and the GI50 (HCT-116 colon) was 1010 nM. It also gave a TGI (HCT-116 colon) of 3930 nM, a GI50 (MCF7 breast) of 948 nM and a TGI (MCF7 breast) of 4210 nM. The GI50 (HCT-15 colon) was 791 nM, the TGI (HCT-15 colon) was 2670 nM and the GI50 (UACC-257 melanoma) was 2010 nM. For the same compound, the TGI (UACC-257 melanoma) was 6690 nM, the GI50 (DU-145 prostate) was 2550 nM and the TGI (DU-145 prostate) was 10800 nM. For the same compound, the GI50 (SF-539 CNS) was 284 nM, the TGI (SF-539 CNS) was 1250 nM and the GI50 (OVCAR-3 ovarian) was 2300 nM. It also gave a TGI (OVCAR-3 ovarian) of 7190 nM, a GI50 (SK-OV-3 ovarian) of 1350 nM and a TGI (SK-OV-3 ovarian) of 3690 nM. The GI50 (HL-60(TB) leukemia) was 2400 nM, the TGI (HL-60(TB) leukemia) was 12300 nM and the GI50 (SR leukemia) was 567 nM. For the same compound, the TGI (SR leukemia) was 20100 nM, the GI50 (M14 melanoma) was 1040 nM and the TGI (M14 melanoma) was 4510 nM. The GI50 (IGROV1 ovarian) was 3220 nM, the TGI (IGROV1 ovarian) was 10100 nM and the GI50 (NCI-H522 lung) was 1490 nM. It also gave a TGI (NCI-H522 lung) of 3250 nM, a GI50 (RXF 393 renal) of 190 nM and a TGI (RXF 393 renal) of 715 nM. For the same compound, the GI50 (K-562 leukemia) was 1860 nM, the TGI (K-562 leukemia) was 15800 nM and the GI50 (LOX IMVI melanoma) was 923 nM. The TGI (LOX IMVI melanoma) was 2410 nM, the GI50 (PC-3 prostate) was 999 nM and the TGI (PC-3 prostate) was 9290 nM. For the same compound, the GI50 (HT29 colon) was 1660 nM, the TGI (HT29 colon) was 4300 nM and the GI50 (SNB-75 CNS) was 1290 nM. For the same compound, the TGI (SNB-75 CNS) was 6320 nM, the GI50 (OVCAR-5 ovarian) was 2410 nM and the TGI (OVCAR-5 ovarian) was 8220 nM. For the same compound, the GI50 (NCI-H460 lung) was 1440 nM, the TGI (NCI-H460 lung) was 5610 nM and the GI50 (U251 CNS) was 735 nM. The TGI (U251 CNS) was 4440 nM, the GI50 (CCRF-CEM leukemia) was 812 nM and the TGI (CCRF-CEM leukemia) was over 86600 nM. The GI50 (BT-549 breast) was 642 nM, the TGI (BT-549 breast) was 3070 nM and the GI50 (MDA-MB-468 breast) was 1510 nM. For the same compound, the TGI (MDA-MB-468 breast) was 4360 nM.
